Assay results from patent US8895509B2, “MIR-200 family induces mesenchymal-to-epithelial transition (MET) in ovarian cancer cells” (Georgia Tech Research Corporation, priority 2010, dated 2014).
Entries after “also recorded” stand apart in the source; their conditions may differ.

Test system: HEY cells
Assay: qRT-PCR of EMT marker mRNAs in transfected HEY cells
Format: cell-based, human
Protocol: 6×10^4 cells per well were seeded in 24-well plates. After 24 h, cells were transfected with 30 nM of miR-429 and miR-320 miRNA oligonucleotides (Ambion, Austin, Tex.) using Lipofectamine 2000 reagent (Invitrogen, Carlsbad, Calif.). The Ambion Pre-miRNA Precursor Negative Control was used as a control. Three days after transfection, cells were split and transfected again. This process was repeated every 3 days until 21 days when cells were assayed for response.
Total RNA was extracted from cells using the miRVana miRNA isolation kit (Ambion). MicroRNA expression was carried our using TaqMan microRNA assays (Applied Biosystems, Carlsbad, Calif.) with human U6 as the endogenous control. For mRNA quantitation, RNA (4.0 μg) was reversed transcribed into cDNA using the Superscript III First-strand Synthesis System (Invitrogen) according to the manufacturer's instructions using sequence specific primers. Real-time PCR was performed using Power SYBR Green PCR Master Mix (Bio-Rad, Hercules, Calif.) and data normalized to glyceraldehydes-3-phosphate-dehydrogenase (GAPDH). Each transfection experiment was carried out in triplicate with 3 PCR reactions performed per transfection. The PCR results were analyzed by 1-way Analysis of Variance (ANOVA) and the Newman-Keuls-Student t test. A p value of <0.05 was considered significant.

For “miR-429: miR-200 family member; mature miRNA UAAUACUGUCUGGUAAAACCGU (SEQ ID NO: 6); miRNA oligonucleotide (Ambion) transfected at 30 nM (listed as RNA, chemistry not given here; listed as Homo sapiens) [miR-200 family member; miRNA oligonucleotide (Ambion) transfected at 30 nM]”, the “levels of E-cadherin mRNA” value was “concomitant increase; also recorded: significantly higher”, the “levels of FN1 (fibronectin) mRNA” value was “No significant difference” and the “levels of N-cadherin mRNA” value was “No significant difference”. For the same substance, the “levels of VIM (vimentin) mRNA” value was “No significant difference”, the “levels of ZEB1 mRNA” value was “significant decrease; also recorded: significantly lower” and the “levels of ZEB2 mRNA” value was “significant decrease; also recorded: significantly lower”.
